Results: ChEMBL document CHEMBL3885881, “DrugMatrix”

Species on record: Rattus norvegicus
Assay: DrugMatrix - Regimen: Daily Repeat
Assay type: toxicity, organism-based, Sprague-Dawley
Set-up: regimen Daily Repeat, gender Male, age 6-8 weeks
Settings: in vivo, po, route oral GAVAGE, vehicle .5 % CMC; for ABSOLUTE BASOPHIL / ABSOLUTE EOSINOPHIL / ABSOLUTE LYMPHOCYTE / ABSOLUTE MONOCYTE / ABSOLUTE SEGMENTED NEUTROPHIL / BASOPHIL / EOSINOPHIL / ERYTHROCYTE COUNT / HEMATOCRIT / HEMOGLOBIN / LEUKOCYTE COUNT / LYMPHOCYTE / MEAN CORPUSCULAR HEMOGLOBIN / MEAN CORPUSCULAR HEMOGLOBIN CONCENTRATION / MEAN CORPUSCULAR VOLUME / MONOCYTE / NEUTROPHIL / NUCLEATED RED BLOOD CELLS / PLATELET COUNT: tissue Blood; for ALANINE AMINOTRANSFERASE / ALBUMIN / ALKALINE PHOSPHATASE / ASPARTATE AMINOTRANSFERASE / BLOOD UREA NITROGEN / CARBON DIOXIDE / CHLORIDE / CHOLESTEROL / CREATINE PHOSPHOKINASE / CREATININE / GLUCOSE / LACTATE DEHYDROGENASE / LIPASE / PHOSPHORUS / POTASSIUM / SODIUM / TOTAL BILIRUBIN / TOTAL PROTEIN / URIC ACID: tissue Plasma
[1] = 0 mg/kg, 72 h, dose level Control, time 3 day
[2] = 0 mg/kg, 120 h, dose level Control, time 5 day
[3] = 75 mg/kg, 72 h, dose level High, time 3 day

Cc1ccc(/N=C/N(C)/C=N/c2ccc(C)cc2C)c(C)c1 [AMITRAZ]
ABSOLUTE BASOPHIL [1]: 0 CELLS/uL | ABSOLUTE EOSINOPHIL [1]: 0 CELLS/uL | ABSOLUTE LYMPHOCYTE [1]: 12269.67 CELLS/uL | ABSOLUTE MONOCYTE [1]: 160.33 CELLS/uL | ABSOLUTE SEGMENTED NEUTROPHIL [1]: 970 CELLS/uL | BASOPHIL [1]: 0% | EOSINOPHIL [1]: 0% | ERYTHROCYTE COUNT [1]: 5.76 x10E6/uL | HEMATOCRIT [1]: 36.57% | HEMOGLOBIN [1]: 14.22 G/DL | LEUKOCYTE COUNT [1]: 13.4 x10E3/uL | LYMPHOCYTE [1]: 91.67% | MEAN CORPUSCULAR HEMOGLOBIN [1]: 24.67 pg | MEAN CORPUSCULAR HEMOGLOBIN CONCENTRATION [1]: 38.85 G/DL | MEAN CORPUSCULAR VOLUME [1]: 63.52 fL | MONOCYTE [1]: 1.17% | NEUTROPHIL [1]: 7.17% | NUCLEATED RED BLOOD CELLS [1]: 0.33 /100WBC | PLATELET COUNT [1]: 1250.83 x10E3/uL | ALANINE AMINOTRANSFERASE [1]: 49.17 u/L | ALBUMIN [1]: 4.33 G/DL | ALKALINE PHOSPHATASE [1]: 378.5 u/L | ASPARTATE AMINOTRANSFERASE [1]: 82.17 u/L | BLOOD UREA NITROGEN [1]: 15 mg/dL | CARBON DIOXIDE [1]: 34.33 mmol/L | CHLORIDE [1]: 99.17 MEQ/L | CHOLESTEROL [1]: 71.17 mg/dL | CREATINE PHOSPHOKINASE [1]: 258.67 u/L | CREATININE [1]: 0.18 mg/dL | GLUCOSE [1]: 142.67 mg/dL | LACTATE DEHYDROGENASE [1]: 154.33 u/L | LIPASE [1]: 9 u/L | PHOSPHORUS [1]: 11.67 mg/dL | POTASSIUM [1]: 7.13 MEQ/L | SODIUM [1]: 142.22 MEQ/L | TOTAL BILIRUBIN [1]: 0.18 mg/dL | TOTAL PROTEIN [1]: 5.77 G/DL | URIC ACID [1]: 1.55 mg/dL | ABSOLUTE BASOPHIL [2]: 0 CELLS/uL | ABSOLUTE EOSINOPHIL [2]: 23.33 CELLS/uL | ABSOLUTE LYMPHOCYTE [2]: 14943.67 CELLS/uL | ABSOLUTE MONOCYTE [2]: 32 CELLS/uL | ABSOLUTE SEGMENTED NEUTROPHIL [2]: 1084.33 CELLS/uL | BASOPHIL [2]: 0% | EOSINOPHIL [2]: 0.17% | ERYTHROCYTE COUNT [2]: 5.71 x10E6/uL | HEMATOCRIT [2]: 35.28% | HEMOGLOBIN [2]: 14.27 G/DL | LEUKOCYTE COUNT [2]: 16.08 x10E3/uL | LYMPHOCYTE [2]: 93% | MEAN CORPUSCULAR HEMOGLOBIN [2]: 25.02 pg | MEAN CORPUSCULAR HEMOGLOBIN CONCENTRATION [2]: 40.43 G/DL | MEAN CORPUSCULAR VOLUME [2]: 61.82 fL | MONOCYTE [2]: 0.17% | NEUTROPHIL [2]: 6.67% | NUCLEATED RED BLOOD CELLS [2]: 0.33 /100WBC | PLATELET COUNT [2]: 1274 x10E3/uL | ALANINE AMINOTRANSFERASE [2]: 54.17 u/L | ALBUMIN [2]: 4.22 G/DL | ALKALINE PHOSPHATASE [2]: 373.17 u/L | ASPARTATE AMINOTRANSFERASE [2]: 81.83 u/L | BLOOD UREA NITROGEN [2]: 16.67 mg/dL | CARBON DIOXIDE [2]: 30.33 mmol/L | CHLORIDE [2]: 99 MEQ/L | CHOLESTEROL [2]: 71 mg/dL | CREATINE PHOSPHOKINASE [2]: 273.5 u/L | CREATININE [2]: 0.22 mg/dL | GLUCOSE [2]: 141.83 mg/dL | LACTATE DEHYDROGENASE [2]: 153.67 u/L | LIPASE [2]: 10.33 u/L | PHOSPHORUS [2]: 11.38 mg/dL | POTASSIUM [2]: 7.08 MEQ/L | SODIUM [2]: 142.75 MEQ/L | TOTAL BILIRUBIN [2]: 0.18 mg/dL | TOTAL PROTEIN [2]: 6.1 G/DL | URIC ACID [2]: 1.67 mg/dL | ABSOLUTE BASOPHIL [3]: 0 CELLS/uL | ABSOLUTE EOSINOPHIL [3]: 0 CELLS/uL | ABSOLUTE LYMPHOCYTE [3]: 12442 CELLS/uL | ABSOLUTE MONOCYTE [3]: 223 CELLS/uL | ABSOLUTE SEGMENTED NEUTROPHIL [3]: 868.33 CELLS/uL | BASOPHIL [3]: 0% | EOSINOPHIL [3]: 0% | ERYTHROCYTE COUNT [3]: 6.64 x10E6/uL | HEMATOCRIT [3]: 42% | HEMOGLOBIN [3]: 16.13 G/DL | LEUKOCYTE COUNT [3]: 13.53 x10E3/uL | LYMPHOCYTE [3]: 92.33% | MEAN CORPUSCULAR HEMOGLOBIN [3]: 24.27 pg | MEAN CORPUSCULAR HEMOGLOBIN CONCENTRATION [3]: 38.4 G/DL | MEAN CORPUSCULAR VOLUME [3]: 63.23 fL | MONOCYTE [3]: 1.67% | NEUTROPHIL [3]: 6% | NUCLEATED RED BLOOD CELLS [3]: 0 /100WBC | PLATELET COUNT [3]: 1347.33 x10E3/uL | ALANINE AMINOTRANSFERASE [3]: 35.67 u/L | ALBUMIN [3]: 3.93 G/DL | ALKALINE PHOSPHATASE [3]: 354 u/L | ASPARTATE AMINOTRANSFERASE [3]: 84.33 u/L | BLOOD UREA NITROGEN [3]: 20 mg/dL | CARBON DIOXIDE [3]: 34.67 mmol/L | CHLORIDE [3]: 101.67 MEQ/L | CHOLESTEROL [3]: 49 mg/dL | CREATINE PHOSPHOKINASE [3]: 285.33 u/L | CREATININE [3]: 0.3 mg/dL | GLUCOSE [3]: 211 mg/dL | LACTATE DEHYDROGENASE [3]: 230 u/L | LIPASE [3]: 8.33 u/L | PHOSPHORUS [3]: 11.13 mg/dL | POTASSIUM [3]: 6.26 MEQ/L | SODIUM [3]: 146.5 MEQ/L | TOTAL BILIRUBIN [3]: 0.23 mg/dL | TOTAL PROTEIN [3]: 5.2 G/DL | URIC ACID [3]: 1.83 mg/dL
